Data as given in US9040717B2, “Pyrazole-amide compounds and pharmaceutical use thereof” (JAPAN TOBACCO INC., priority 2013, dated 2015).

How the values were obtained:
[1] = Metabolic stability test in rat liver microsome; format: in vitro ADME
[2] = tested on: adipose tissue PDH activity; test: Ex vivo PDH activation assay, adipose tissue; format: in vivo, Sprague-Dawley rats
Experimental: The action of test compound on tissue PDH activity was evaluated. NADH production was detected via p-iodonitrotetrazolium violet (INT)-coupled system to measure PDH activity.
Normal male Sprague-Dawley rats were randomly allocated to the vehicle group and the test compound groups. The vehicle (0.5% aqueous methylcellulose solution, 5 mL/kg) or the test compound was orally administered to the rats. At 5 or 20 hr after administration, the rats were anesthetized with an intraperitoneal injection of sodium pentobarbital (60 mg/kg), and liver slices and epididymal adipose tissues were collected.
To the adipose tissues were rapidly added 3 volumes of an ice-cold homogenization buffer, and the mixtures were homogenized using a Polytron homogenizer. The homogenates were centrifuged at 600×g, 4° C. for 10 min to obtain the supernatant. The supernatants were centrifuged at 16,000×g, 4° C. for 10 min to collect the precipitates. The precipitates were washed by resuspension in the homogenization buffer (1 mL) and centrifuged in the same manner. The precipitates were frozen with liquid nitrogen and stored at −80° C. as the adipose tissue mitochondrial fraction.
The mitochondrial fractions were thawed and suspended with the sample buffer (0.25 mol/L sucrose, 20 mmol/L tris(hydroxymethyl)aminomethane hydrochloride (pH 7.5), 50 mmol/L potassium chloride, and 1 mL/L 4-(1,1,3,3-tetramethylbutyl)phenyl-polyethylene glycol (Triton X-100)). Active PDH activity (PDHa activity) and total PDH activity (PDHt activity) were measured to evaluate the PDH activity. For the measurement of the PDHt activity, equal amounts of the mitochondrial suspension and the activation buffer (0.25 mol/L sucrose, 20 mmol/L tris(hydroxymethyl)aminomethane hydrochloride (pH 7.5), 50 mmol/L potassium chloride, 1 mL/L Triton X-100, 4 mmol/L calcium chloride, 40 mmol/L magnesium chloride, 10 mmol/L sodium dichloroacetate) were mixed, and the mixtures were incubated at 37° C. for 10 min. Forty microliters of the mitochondrial suspensions diluted with a sample buffer were added to a 96-well microplate for activity measurement and blank measurement. Then 180 μL of the reaction mixture (0.056 mmol/L potassium phosphate buffer (pH 7.5), 5.6 mmol/L DL-carnitine, 2.8 mmol/L NAD, 0.22 mmol/L thiamin pyrophosphate, 0.11 mmol/L Coenzyme A, 1.1 mL/L Triton X-100, 1.1 mmol/L magnesium chloride, 1.1 g/L bovine serum albumin, 0.67 mmol/L INT, 7.2 μmol/L phenazine methosulfate, 28 mmol/L sodium oxamate) was added to each well, and then 20 μL of 50 mmol/L sodium pyruvate for activity measurement or water for blank measurement were added. The mixtures were incubated at room temperature under shading. The absorbances at 500-750 nm, which were attributable to reduction of INT, the final electron acceptor, were measured using a microplate reader over time and the changes in the absorbance were calculated. The PDH activity was calculated by subtraction of the change in absorbance of the blank well from that of the activity measurement well. The percentage of the PDHa activity to the PDHt activity was calculated and taken as an index of the PDH activation.

[3] = Table 2, 5 hr after oral 3 mg/kg, non-fasting SD rats, vehicle 31 ± 10, mean ± S.D. (n = 3)
[4] = Table 2, 20 hr after oral 3 mg/kg, non-fasting SD rats, vehicle 31 ± 10, mean ± S.D. (n = 3)

Row | SMILES | Stability in liver microsome (residual ratio %) ([1]; 10 min) [%] | Stability in liver microsome (residual ratio %) ([1]; 60 min) [%] | PDHa activity (% of PDHt activity) [2, 3] | PDHa activity (% of PDHt activity) [2, 4] | PDHa activity (% of PDHt activity) ([2]; Table 3, 5 hr after oral 3 mg/kg, SD rats, vehicle 42 ± 4, mean ± S.D. (n = 3)) | PDHa activity (% of PDHt activity) ([2]; Table 3, 20 hr after oral 3 mg/kg, SD rats, vehicle 42 ± 4, mean ± S.D. (n = 3))
1 | Cn1cc(-c2cc(OCC(C)(C)O)cc3c2-c2ccccc2[C@]3(O)C(F)(F)F)cn1 [Compound (B), (9R)-2-(2-Hydroxy-2-methylpropoxy)-4-(1-methyl-1H-pyrazol-4-yl)-9-(trifluoromethyl)-9H-fluoren-9-ol] | 101.1 | 92.1 | 59 ± 5 % of PDHt activity | 30 ± 4 % of PDHt activity |  | 
2 | CC(C)(O)CCOc1cc(-c2cnn(C(C)(C)C(N)=O)c2)c2c(c1)[C@@](O)(C(F)(F)F)c1ccccc1-2 [Compound (2), 2-{4-[(9R)-9-hydroxy-2-(3-hydroxy-3-methylbutyloxy)-9-(trifluoromethyl)-9H-fluoren-4-yl]-1H-pyrazol-1-yl}-2-methylpropanamide] | 98.8 | 100.0 |  |  | 88 ± 11 % of PDHt activity | 61 ± 15 % of PDHt activity
3 | CC(C)(O)CCCOc1cc(-c2cnn(C(C)(C)C(N)=O)c2)c2c(c1)[C@@](O)(C(F)(F)F)c1ccccc1-2 [Compound (3), 2-{4-[(9R)-9-hydroxy-2-(4-hydroxy-4-methylpentyloxy)-9-(trifluoromethyl)-9H-fluoren-4-yl]-1H-pyrazol-1-yl}-2-methylpropanamide] | 102.7 | 95.8 | 70 ± 9 % of PDHt activity | 42 ± 3 % of PDHt activity |  | 
4 | NC(=O)Cn1cc(-c2cc(OCCC34CC5CC(CC(O)(C5)C3)C4)cc3c2-c2ccccc2[C@]3(O)C(F)(F)F)cn1 [Compound (A), 2-(4-{(9R)-9-Hydroxy-2-[2-(3-hydroxyadamantan-1-yl)ethoxy]-9-(trifluoromethyl)-9H-fluoren-4-yl}-1H-pyrazol-1-yl)acetamide] | 24.8 | 0.0 | 32 ± 14 % of PDHt activity | 24 ± 7 % of PDHt activity |  | 
